Experiments:
[1] = system: Pseudomonas aeruginosa ATCC 15442; test: Quantitative suspension test, log10 reduction in bacterial numbers; assay type: cell-based; settings: 0.5% w/v H2O2; for log reduction: 35° C.
Text: Neutralisation (nullification of activity) of antimicrobial agents is required to prevent inhibitory concentrations from being transferred to the recovery medium (as discussed, for example, in Russell A. D. (2004) Factors influencing the efficacy of antimicrobial agents in Principles and Practice of Disinfection Preservation and Sterilization, 4th edition, eds Fraise A. P., Lambert P. A. and Maillard J. Y., pages 98-127, Oxford: Blackwell Publishing Ltd. and Russell A. D., Ahonkhai I. and Rogers, D. T. (1979) A review: microbiological applications of the inactivation of antibiotics and other antimicrobial agents. Journal of Applied Bacteriology, 46, 207-245). Thus, samples were removed at desired time points and then any hydrogen peroxide present in the sample was neutralised (i.e. deactivated) using catalase.
In the examples, catalase from bovine liver was used to neutralise the activity of any remaining hydrogen peroxide (as described in Russell A. D., Ahonkhai I. and Rogers, D. T. (1979), A review: microbiological applications of the inactivation of antibiotics and other antimicrobial agents, Journal of Applied Bacteriology, 46, 207-245) after the appropriate contact time during the experiments. Control experiments were conducted to establish whether the neutraliser nullified the activity of hydrogen peroxide and whether the neutraliser was toxic to the micro-organisms tested.
The effect of acidic pH conditions (pH 3.47 to 3.54) were investigated with and without hydrogen peroxide and air.
A quantitative suspension test (as described in Reybrouck G. (1998), The testing of disinfectants, International Biodeterioration and Biodegradation, 41, 269-272) based on the general principles of European quantitative suspension tests (BS EN1040:2005: Chemical disinfectants and antiseptics, Quantitative suspension test for the evaluation of basic bactericidal activity of chemical disinfectants and antiseptics, Test method and requirements (phase 1), London: British Standards Institute; BS EN 1276:1997: Chemical disinfectants and antiseptics, Quantitative suspension test for the evaluation of bactericidal activity of chemical disinfectants and antiseptics used in food, industrial, domestic, and institutional areas, Test method and requirements (phase 2, step 1). London: British Standards Institute) was used to establish the basic level of activity of the catalyst in the absence of organic matter. All tests were performed independently at least three times unless otherwise stated. Low concentrations (0.2-1% w/v) of hydrogen peroxide were used so that increases in antimicrobial activity could be detected if present.
Bacteria were inoculated into 10 ml volumes of nutrient broth and incubated at 37° C. for 18 to 24 hours at a shaking speed of 100 revolutions/minute. After incubation, the bacteria were washed by centrifugation to remove the nutrient broth; supernatants were discarded and the bacterial pellets were resuspended in sterilised distilled water. 7.5 ml of the washed bacterial suspension was added to 67.5 ml of hydrogen peroxide and/or distilled water to give a specific final concentration (ranging from 0 to 1% w/v—see Tables below) of hydrogen peroxide and approximately 8 log10 colony forming units (CFU)/mL of bacteria. The resultant mixture was stirred magnetically throughout the experiment. Where applicable, 1 g (+/−0.1 g) of either modified PAN fibre (referred to as PAN1 (control) or PAN2 (control)) or catalyst (referred to as PAN1 catalyst or PAN2 catalyst or PAN3 catalyst) comprising PAN fibres was added to the resultant mixture. The experiments were performed with or without air. If air was used, 2.5 L/min was supplied via. a filtered air pump and a sterilised Pyrex gas distribution tube.
After a specific contact time (see Tables below), 1 ml aliquots were removed from the experimental flask and transferred into 9 ml of neutraliser (catalase) for 5 minutes to inactivate any remaining hydrogen peroxide.

[2] = system: Pseudomonas aeruginosa ATCC 15442; test: Antimicrobial activity of PAN catalyst under buffered neutral pH conditions at room temperature and 35° C.; assay type: cell-based; settings: 0.5% w/v H2O2; for log reduction: 35° C., held at neutral pH; for Mean log10 reduction in CFU/ml: room temperature, buffered at neutral pH
Experimental: Experiments were conducted using the method outlined previously (see testing antimicrobial activity section), but hydrogen peroxide and catalyst were prepared in phosphate buffer solution. Experiments were carried out at room temperature and 35° C.

## OO [Example H2O2, hydrogen peroxide]
[1]; air 2.5 L/min, 10 min
  Mean log10 reduction in CFU/ml: 0.36 (0.13) log10 CFU/ml
[1]; air 2.5 L/min, 20 min
  Mean log10 reduction in CFU/ml: 0.53 (0.10) log10 CFU/ml
[1]; air 2.5 L/min, 30 min
  Mean log10 reduction in CFU/ml: 0.55 (0.18) log10 CFU/ml
[1]; air 2.5 L/min, 40 min
  Mean log10 reduction in CFU/ml: 0.59 (0) log10 CFU/ml
[1]; air 2.5 L/min, 50 min
  Mean log10 reduction in CFU/ml: 0.72 (0.07) log10 CFU/ml
[1]; air 2.5 L/min, 50 min, listed as hydrogen peroxide
  Mean log10 reduction in CFU/ml: 0.72 log10 CFU/ml
[1]; air 2.5 L/min, 60 min
  Mean log10 reduction in CFU/ml: 0.50 (0.09) log10 CFU/ml
[1]; air 2.5 L/min, 60 min, listed as hydrogen peroxide
  Mean log10 reduction in CFU/ml: 0.5 log10 CFU/ml
[1]; no air, 10 min
  Mean log10 reduction in CFU/ml: 0.52 (0.12) log10 CFU/ml
[1]; no air, 20 min
  Mean log10 reduction in CFU/ml: 0.81 (0.24) log10 CFU/ml
[1]; no air, 30 min
  Mean log10 reduction in CFU/ml: 0.88 (0.25) log10 CFU/ml
[1]; no air, 40 min
  Mean log10 reduction in CFU/ml: 0.86 (0.32) log10 CFU/ml
[1]; no air, 50 min
  Mean log10 reduction in CFU/ml: 0.87 (0.28) log10 CFU/ml
[1]; no air, 60 min
  Mean log10 reduction in CFU/ml: 0.97 (0.22) log10 CFU/ml
[1]; no air, 60 min, listed as hydrogen peroxide
  Mean log10 reduction in CFU/ml: 0.97 log10 CFU/ml
[1]; not buffered, air, 10 min
  log reduction: 1.80 log
[1]; not buffered, air, 20 min
  log reduction: 2.42 log
[1]; not buffered, air, 60 min
  log reduction: 3.61 log
[1]; not buffered, no air, 10 min
  log reduction: 2.51 log
[1]; not buffered, no air, 40 min
  log reduction: 4.15 log
[1]; not buffered, no air, 60 min
  log reduction: 4.45 log
[1]; acidic pH 3.47 to 3.54, air 2.5 L/min, 10 min
  Mean log10 reduction in CFU/ml: 2.53 log10 CFU/ml
[1]; acidic pH 3.47 to 3.54, air 2.5 L/min, 20 min
  Mean log10 reduction in CFU/ml: 3.41 log10 CFU/ml
[1]; acidic pH 3.47 to 3.54, air 2.5 L/min, 30 min
  Mean log10 reduction in CFU/ml: 4.25 log10 CFU/ml
[1]; acidic pH 3.47 to 3.54, air 2.5 L/min, 40 min
  Mean log10 reduction in CFU/ml: ≧4.81 log10 CFU/ml
[1]; acidic pH 3.47 to 3.54, air 2.5 L/min, 50 min
  Mean log10 reduction in CFU/ml: ≧5.34 log10 CFU/ml
[1]; acidic pH 3.47 to 3.54, air 2.5 L/min, 50 min, listed as hydrogen peroxide
  Mean log10 reduction in CFU/ml: greater than 5 log10 CFU/ml
[1]; acidic pH 3.47 to 3.54, air 2.5 L/min, 60 min
  Mean log10 reduction in CFU/ml: ≧5.34 log10 CFU/ml
[1]; acidic pH 3.47 to 3.54, no air, 10 min
  Mean log10 reduction in CFU/ml: 2.30 log10 CFU/ml
[1]; acidic pH 3.47 to 3.54, no air, 20 min
  Mean log10 reduction in CFU/ml: 2.76 log10 CFU/ml
[1]; acidic pH 3.47 to 3.54, no air, 30 min
  Mean log10 reduction in CFU/ml: 3.71 log10 CFU/ml
[1]; acidic pH 3.47 to 3.54, no air, 40 min
  Mean log10 reduction in CFU/ml: 3.88 log10 CFU/ml
[1]; acidic pH 3.47 to 3.54, no air, 50 min
  Mean log10 reduction in CFU/ml: 4.52 log10 CFU/ml
[1]; acidic pH 3.47 to 3.54, no air, 60 min
  Mean log10 reduction in CFU/ml: 4.83 log10 CFU/ml
[1]; room temperature, not buffered, air 2.5 L/min, 10 min
  Mean log10 reduction in CFU/ml: 0.49 log10 CFU/ml
[1]; room temperature, not buffered, air 2.5 L/min, 20 min
  Mean log10 reduction in CFU/ml: 0.70 log10 CFU/ml
[1]; room temperature, not buffered, air 2.5 L/min, 30 min
  Mean log10 reduction in CFU/ml: 0.70 log10 CFU/ml
[1]; room temperature, not buffered, air 2.5 L/min, 40 min
  Mean log10 reduction in CFU/ml: 0.80 log10 CFU/ml
[1]; room temperature, not buffered, air 2.5 L/min, 50 min
  Mean log10 reduction in CFU/ml: 0.81 log10 CFU/ml
[1]; room temperature, not buffered, air 2.5 L/min, 60 min
  Mean log10 reduction in CFU/ml: 0.63 log10 CFU/ml
[1]; room temperature, not buffered, no air, 10 min
  Mean log10 reduction in CFU/ml: 0.58 log10 CFU/ml
[1]; room temperature, not buffered, no air, 20 min
  Mean log10 reduction in CFU/ml: 1.00 log10 CFU/ml
[1]; room temperature, not buffered, no air, 30 min
  Mean log10 reduction in CFU/ml: 1.00 log10 CFU/ml
[1]; room temperature, not buffered, no air, 40 min
  Mean log10 reduction in CFU/ml: 1.00 log10 CFU/ml
[1]; room temperature, not buffered, no air, 50 min
  Mean log10 reduction in CFU/ml: 1.02 log10 CFU/ml
[1]; room temperature, not buffered, no air, 60 min
  Mean log10 reduction in CFU/ml: 1.12 log10 CFU/ml
[2]; air, 20 min
  log reduction: 3.13 log
[2]; air, 40 min
  log reduction: 3.41 log
[2]; no air, 50 min
  log reduction: 3.90 log
  Mean log10 reduction in CFU/ml: 1.92 log10 CFU/ml
[2]; air 2.5 L/min, 10 min
  Mean log10 reduction in CFU/ml: 1.37 log10 CFU/ml
[2]; air 2.5 L/min, 20 min
  Mean log10 reduction in CFU/ml: 1.46 log10 CFU/ml
[2]; air 2.5 L/min, 30 min
  Mean log10 reduction in CFU/ml: 1.71 log10 CFU/ml
[2]; air 2.5 L/min, 40 min
  Mean log10 reduction in CFU/ml: 1.61 log10 CFU/ml
[2]; air 2.5 L/min, 50 min
  Mean log10 reduction in CFU/ml: 1.75 log10 CFU/ml
[2]; air 2.5 L/min, 60 min
  Mean log10 reduction in CFU/ml: 1.90 log10 CFU/ml
[2]; no air, 10 min
  Mean log10 reduction in CFU/ml: 1.08 log10 CFU/ml
[2]; no air, 20 min
  Mean log10 reduction in CFU/ml: 1.49 log10 CFU/ml
[2]; no air, 30 min
  Mean log10 reduction in CFU/ml: 1.69 log10 CFU/ml
[2]; no air, 40 min
  Mean log10 reduction in CFU/ml: 1.79 log10 CFU/ml
[2]; no air, 60 min
  Mean log10 reduction in CFU/ml: 1.85 log10 CFU/ml

From patent US8513303B2, “Antimicrobial agent” (De Montfort University, priority 2007, dated 2013)
